The numbers were not newly measured in patent US20220362213A1, “METHODS FOR TREATING POST ENDOSCOPIC RETROGRADE CHOLANGIOPANCREATOGRAPHY PANCREATITIS” (priority 2021, published 2022), which cites them from elsewhere.

The test system of series [1] is post-ERCP pancreatitis. The conditions noted are these: for preventing post-ERCP pancreatitis: two large controlled trials, pharmacologic prevention in high-risk patients.
Series [2] relates to post-ERCP pancreatitis. The note with it: single-dose rectal; meta-analysis of preliminary studies.

For `CCOC(=O)c1ccc(OC(=O)CCCCCNC(=N)N)cc1` [gabexate], the “reducing the frequency of post-ERCP pancreatitis” value in the series with post-ERCP pancreatitis [1] (prophylaxis, meta-analysis of 28 clinical trials) is “effective”. For the same molecule, the “preventing post-ERCP pancreatitis” value with post-ERCP pancreatitis [1] is recorded as “ineffective”.
Regarding secretin, the “incidence of post-ERCP pancreatitis” value in the series on post-ERCP pancreatitis [1] (retrospective review of 4833 ERCP procedures, patients without pancreas divisum) is “might decrease the incidence”.
For `O=C(O)Cc1ccccc1Nc1c(Cl)cccc1Cl` [diclofenac], in the series on post-ERCP pancreatitis [2], the “protective effects in post-ERCP pancreatitis” value is recorded as “benefit”.
For the molecule `COc1ccc2c(c1)c(CC(=O)O)c(C)n2C(=O)c1ccc(Cl)cc1` [indomethacin], the “protective effects in post-ERCP pancreatitis” value in the series with post-ERCP pancreatitis [2] was “benefit”.
`C[C@@H](O)[C@@H]1NC(=O)[C@H](CCCCN)NC(=O)[C@@H](Cc2c[nH]c3ccccc23)NC(=O)[C@H](Cc2ccccc2)NC(=O)[C@@H](NC(=O)[C@H](N)Cc2ccccc2)CSSC[C@@H](C(=O)N[C@H](CO)[C@@H](C)O)NC1=O` [octreotide]: the hyperamylasemia result in the series on post-ERCP pancreatitis [1] (after ERCP) is on record as “reduces hyperamylasemia”. Besides, the “clinical course of post-ERCP pancreatitis” value in the series on post-ERCP pancreatitis [1] (human, in vivo) was “has not been shown to alter the clinical course”. Also, the “preventing post-ERCP pancreatitis” value with post-ERCP pancreatitis [1] was “ineffective”.
